Measurements: US11040949B2, “Compounds affecting pigment production and methods for treatment of bacterial diseases” (Versitech Limited, priority 2017, dated 2021)

Assays:
S. aureus COL [1] = experiment: Murine intraperitoneal infection model, liver and spleen CFUs; format: in vivo, BALB/c mice
Procedure: (§1) For other S. aureus sub-type, eight- to ten-week-old female BALB/c mice were injected intraperitoneally (i.p) with 4×10^8 CFUs of early stationary phase S. aureus COL. After 3 d, animals were euthanized, the liver and spleen were isolated, homogenized in PBS, and plated on to obtain viable counts. For the treatment study, mice were randomized into two groups at the start of the experiment and administered, i.p., either 0.35 mg of NP16 or PBS with 5% Tween-80 as a control, twice per day, starting on d −1 to d 2 (a total of eight doses for each). Intraperitoneal challenge with 4×10^8 CFUs of early stationary phases S. aureus COL was performed on d 0. The mice were sacrificed on d 3 for enumeration of bacterial CFUs in liver and spleen homogenates.
(§2) With the same intraperitoneal challenge used in FIGS. 3a, 3b and 3e, one group of mice (n=14) was treated with 0.35 mg of NP16 twice per day (days −1, 0, 1 and 2), and a second group (n=12) with a vehicle control.

S. aureus COL [2] = experiment: Bactericidal activity of human polymorphonuclear leukocytes; format: cell-based, Staphylococcus aureus; conditions: NP16-treated COL vs COL
Procedure: Bactericidal Activity of Polymorphonuclear Leukocytes
The killing of S. aureus by human polymorphonuclear leukocytes (PMNs) was determined as previously described, with some modifications. Briefly, PMNs (10^6) were mixed with ˜10^7 opsonized S. aureus bacteria MOI=10 in 24-well tissue culture plates. After centrifuged at 380 g for 8 min, plates were incubated at 37° C. for up to 1.5 h. PMNs were lysed with saponin (20 min on ice) and plated on BHIA plates. The percent survival was calculated by normalized with time zero. Statistics were performed with the Student's t-test (GraphPad Prism).

S. aureus COL [3] = experiment: Hydrogen peroxide susceptibility assay; format: cell-based, Staphylococcus aureus; conditions: grown with NP16 (40 μM); 440 mM H2O2, 1 hr
Procedure: (§3) Hydrogen Peroxide Susceptibility Assay
(§4) S. aureus was grown in BHI with or without NP16 (40 μM). After 2 days, bacteria were washed twice in PBS, diluted to a concentration of 1×10^7 CFUs per 100 μl reaction mixture in a 96-well plate. Hydrogen peroxide (H2O2) in PBS was added to a 440 mM final concentration, and the plate was incubated for 1 hr at 37° C. with shaking. The reaction was stopped by the addition of 1,000 U/ml of exogenous catalase (Sigma-Aldrich, St. Louis, Mo.), and bacterial viability was assessed by plating dilutions on BHI agar plates.

USA300 = experiment: Minimum inhibitory concentration (MIC) test; format: cell-based; conditions: Staphylococcus aureus
Procedure: Minimum Inhibitory Concentration (MIC) Tests
MIC was determined by inoculating 5×10^4 S. aureus cells in 100 μl BHI medium in 96-well plates with a serial dilution of antibiotics.

[4] = tested on: clinical isolate S. aureus strain AE052; experiment: Murine intraperitoneal infection model, kidney bacterial loads; format: in vivo, BALB/c mice
Procedure: as §1
For the clinical isolate S. aureus strain AE052, all operations were similar to those used for the COL strain, except 10^8 CFUs of early stationary phase bacteria were used in the infection model, and kidneys were collected for monitoring bacterial loads. Statistics were performed using the Student's t-test (GraphPad Prism).
as §2

S. aureus USA300 = experiment: In vitro staphyloxanthin production inhibition by NP-16 analogues; format: cell-based, Staphylococcus aureus; conditions: S. aureus USA300, methanol extract OD 450 nm, 300 nM to 700 nM
Procedure: Evaluation of NP-16 analogues in Staphyloxanthin production
The in vitro pigment inhibition studies were performed by S. aureus USA300 cultured in BHI with or without the presence of inhibitor compounds at 37° C. and 250 rpm for 36-48 hours. The bacteria were washed twice with PBS prior to the staphyloxanthin purification with methanol. The OD of the extracts were monitor at 450 nm using DTX880 multi-plate reader spectrophotometer (Beckman). The concentration range tested for the compounds were between 300 nM to 700 nM, and control groups were added with equal volume of DMSO.
The cytotoxicity of NP-16 and some of its analogues was tested against Raw 264.7 cells, and the cell tolerance of each compounds were documented in Table 3. Along with the in vitro staphyloxanthin production of the NP-16 analogues were being tested, the compounds can exert staphyloxanthin production inhibition. The staphyloxanthin from the overnight-cultured bacteria were extracted with methanol and quantified in via spectrophotometry. The results were presented in relative ratio to NP-16 in both the inhibition ratio as well as the TC50 (concentration for decreasing cell viability by 50%) in Table 3 (sample names correspond to those listed in Table 1).

[5] = tested on: non-pigmented strain RN6390; experiment: Hydrogen peroxide susceptibility assay, non-pigmented strain; format: cell-based, Staphylococcus aureus; conditions: non-pigmented strain RN6390, with or without NP16
Procedure: as §3, §4

[6] = molecular target: T1, 4,4-diapophytoene desaturase (CrtN) (Staphylococcus aureus, UniProt Q99R76); experiment: CrtN enzymatic assay; format: biochemical, S. aureus
T1 construct: made in house; host or cells: E. coli Rosetta (DE3)
T1 sequence (Q99R76 whole entry): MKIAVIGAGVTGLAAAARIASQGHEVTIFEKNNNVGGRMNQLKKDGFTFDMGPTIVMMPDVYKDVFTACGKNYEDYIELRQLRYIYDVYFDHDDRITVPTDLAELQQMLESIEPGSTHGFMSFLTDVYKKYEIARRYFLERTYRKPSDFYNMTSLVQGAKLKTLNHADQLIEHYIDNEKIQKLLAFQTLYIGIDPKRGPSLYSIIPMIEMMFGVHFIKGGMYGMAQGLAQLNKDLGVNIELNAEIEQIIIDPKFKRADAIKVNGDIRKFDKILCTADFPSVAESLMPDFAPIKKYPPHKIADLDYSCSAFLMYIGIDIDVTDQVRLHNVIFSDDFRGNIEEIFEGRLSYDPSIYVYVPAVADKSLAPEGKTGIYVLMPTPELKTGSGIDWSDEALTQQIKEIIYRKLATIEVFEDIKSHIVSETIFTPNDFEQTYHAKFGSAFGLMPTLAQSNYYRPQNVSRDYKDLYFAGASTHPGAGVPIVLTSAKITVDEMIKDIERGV
Procedure: crtN Expression, Purification and Enzymatic Assay
CrtN with a histidine-maltose binding protein (MBP) tag was overexpressed in E. coli Rosetta (DE3) cells. A 10 ml overnight culture was transferred into 1 L of LB medium supplemented with 100 μg/ml ampicillin. Induction was carried out with 1 mM IPTG for 12 hours at 16° C. at an OD of 0.6 at 600 nm. The cell lysate was loaded onto a Ni-NTA column, and CrtN was eluted using a 75-ml linear gradient of 0-0.4 M imidazole in 50 mM sodium phosphate buffer, with 400 mM sodium chloride, pH 6.6. The collected fractions were analysed by SDS-PAGE to confirm the peak for MBP-CrtN. The target peak fractions were concentrated and the buffer was exchanged to loading buffer without imidazole using a PD-10 column (GE Healthcare). The collected solution was treated with TEV protease at 4° C. overnight. The protein sample was applied to a maltose column, and the flow-through was collected as native CrtN protein. For enzyme assay, 10 μg of purified CrtN was incubated with 100 μl of 4,4′-diapophytoene liposomes (containing 5 nmol of 4,4′-diapophytoene), 150 μM FAD and buffer II (20 mM phosphate buffer pH 8.0, 100 mM NaCl) in a total volume of 660 μl at 37° C. for 2 h (standard assay). The reaction was stopped by adding 1 volume of CHCl3: MeOH (2:1, v/v). Followed by mixing, the sample was centrifuged at 16,000 g for 10 min. […]

MDCK cells = experiment: Cytotoxic activity on MDCK cells; format: cell-based
[7] = molecular target: 4,4-diapophytoene desaturase (CrtN) (Staphylococcus aureus, UniProt O07855); conditions: reference [5]; cited from earlier work
Chain of 4,4-diapophytoene desaturase (CrtN) (Staphylococcus aureus, UniProt O07855) (O07855 whole entry): as the sequence (Q99R76 whole entry) above

Row | SMILES | bacterial counts in the livers and spleens (S. aureus COL [1]; 0.35 mg twice per day i.p. (days -1, 0, 1, 2), 72 hours, vs control group, P<0.01) | decrease in surviving bacteria (S. aureus COL [1]; treatment group infected with COL) | survival in human neutrophils (S. aureus COL [2]) | susceptibility to hydrogen peroxide killing (S. aureus COL [3]) | MIC (USA300) | bacterial counts in the kidneys ([4]; 0.35 mg twice per day i.p., 72 hours, vs control group, P<0.001) | mice below the detection threshold (kidneys) ([4]; n=10, versus 2 of 10 in the control group) | decrease in surviving bacteria ([4]; treatment group infected with AE052) | Relative ratio to NP16 based on inhibition ratio (S. aureus USA300) | susceptibility to hydrogen peroxide killing [5] | inhibition of CrtN [6] | effect on the growth of MDCK cells (MDCK cells) | inhibitor of CrtN, level [7]
1 | O=C(/C=C/c1ccccc1)Nc1ccc(S(=O)(=O)N2CCCC2)cc1 [NP16, 3-phenyl-N-[4-(1-pyrrolidinylsulfonyl)-phenyl]acrylamide] | significantly lower | 98% | COL survived significantly better than RN6390 and NP16-treated COL | increase in the susceptibility of the pathogen to hydrogen peroxide killing | > 500 µM | significantly lower | 6 of 10 | 98% | 1 | susceptibility was similar irrespective of NP16 treatment | inhibitor for CrtN | no effect on the growth of MDCK cells | 
2 | c1ccc(Nc2ccccc2)cc1 [Diphenylamine] |  |  |  |  |  |  |  |  |  |  |  |  | high micromolar level
